Assay results as given in patent US4795808A, “Anthracycline tetrasaccharides” (Hoechst Aktiengesellschaft, priority 1985, dated 1989).

Test system: L1210 leukemia cells
Experiment: cell proliferation test on L1210 leukemia cells (C14-thymidine incorporation)
Assay type: cell-based
Settings: Mus musculus, 72 hours, 37° C., 5% of CO2, concentration which reduces incorporation of radioactive thymidine by 50% vs control
Procedure: The inhibiting action was determined (cell proliferation test) as described below:
[…] cells in the exponential growth phase (5×10^3 /ml in RPMI 1640) are incubated in a microtiter plate with different concentrations of the test substance for 72 hours (37° C., 5% of CO2, 95% relative atmospheric humidity). Controls comprise cells incubated only with fresh medium. All the determinations are carried out as 4-fold determinations. After 65 hours, 50 μl of C14-thymidine (1.5 μC/ml) are added in order to radiolabel the cell DNA. After incubation for 7 hours, the cells are filtered off with suction and the DNA is precipitated with 5% strength trichloroacetic acid and washed with water and methanol in succession. After drying at 50° C., the radioactivity incorporated into the DNA is determined after addition of 5 ml of scintillation liquid. The results are stated as ratios of the scintillation index after incubation with the test substance in percent of the untreated control. From the measurement values thus obtained, the dose/effect curve is determined, and the IC50, that is to say the concentration which reduces the incorporation of radioactive thymidine by 50% under test conditions in comparison with the control, is determined graphically.

How did the IC50 turn out when `CCC1(O)CC(OC2CC(N(C)C)C(OC3CCC(OC4C=CC(=O)C(C)O4)C(C)O3)C(C)O2)c2c(O)c3c(c(O)c2C1OC1CC(N(C)C)C(O)C(C)O1)C(=O)c1cccc(O)c1C3=O` (stereo not shown) [cytorhodin SE gluconate] was run?
Its IC50 is 6 ng/mL.
